This is an account of results in patent US9862711B2, “Pyrazine derivatives as phosphatidylinositol 3-kinase inhibitors” (NOVARTIS AG, priority 2014, dated 2018).

Molecules are shown by their SMILES.

The target of one assay is mTOR (Homo sapiens (Human), UniProt P42345). The assay can be described thus: Lanthascreen kinase binding assay (Assay G). Conditions: GST-mTOR, Tracer-314. The source says:
Lanthascreen™ Kinase Binding Assay for mTOR (G)
Binding Assays are based on the binding and displacement of an Alexa Fluor® 647-labeled, ATP-competitive kinase inhibitors to the kinase of interest. Invitrogen's “Kinase Tracers” have been developed to address a wide range of kinase targets and are based on ATP-competitive kinase inhibitors, making them suitable for detection of any compounds that bind to the ATP site or to an allosteric site altering the conformation of the ATP site.
In the Lanthascreen™ kinase binding assay, the donor (Eu^3+-anti-GST (glutathione 5-transferase) antibody) is excited at 340 nm and will transfer its energy to the acceptor (Alexa Fluor® 647-labeled ATP-competitive kinase inhibitor=Tracer-314). The emission from the Tracer-314 (Alexa Fluor® 647 inhibitor) can be monitored with a filter centered at 665 nm because it is located between the emission peaks of the donor, which is measured at 615/620 nm. The binding of both, the Tracer-314 and Eu^3+-anti-GST antibody, to the kinase results in a high degree of FRET from the Eu^3+-donor fluorophore to the Alexa-Fluor® 647-acceptor fluorophore on the Tracer-314. Binding of an inhibitor to the kinase competes for binding with the tracer, resulting in a loss of FRET.
50 nL of compound dilutions were dispensed onto white 384-well small volume polystyrene plate. Then 5 μL of GST-mTOR and Europium-anti-GST antibody followed by 5 μL of tracer-314 (final assay volume 10 μL) are incubated at RT. The standard reaction buffer for the Lanthascreen™ kinase binding assay contained 50 mM HEPES pH 7.5, 5 mM MgCl2, 1 mM EGTA, 0.01% Pluronic F-127. Plates are read 60 mins later in a Synergy2 reader using an integration time of 0.2 microseconds and a delay of 0.1 microseconds.
To calculate the emission ratio, the signal emitted at 665 nm from the acceptor (Alexa Fluor® 647-labeled Tracer-314) is divided by the signal emitted at 620 nm from the donor (Eu^3+ anti-GST antibody).
Control for the 0% inhibition was given by the solvent vehicle of the compounds (90% DMSO in H2O). Control for the relative 100% inhibition was performed by adding 10 μM in the mix containing GST-mTOR and Europium anti-GST antibody. An additional control for the absolute 0% inhibition is given by Eu^3+ anti-GST antibody without GST-mTOR. Standard compounds for the lipid kinase panel profiling were used as a reference and included in all assay plates in the form of 8 dilution points.

For another assay, the target named is PI 3-kinase gamma (Homo sapiens (Human), UniProt P48736). As to the kind of experiment: Cellular U937 AKT assay (Assay K). Conditions: AKT phosphorylation in U937 monocyte cells stimulated with 10 ng/ml MIP1α; read-out: Assay K PI3Kγ IC50. Format: cell-based. As for the experimental part:
Cellular U937 AKT Assay for PI 3-Kinase Gamma (K)
The U937 monocyte cell line is maintained in a basal medium of RPMI 1640 supplemented with 10% heat inactivated FCS, 100 U/ml Penicillin, 100 ug/ml streptomycin and 2 mM L-glutamine (Invitrogen). U937 suspension culture is maintained by seeding cells at a density of 0.125×10^6 cells per ml in fresh medium every three or four days. Cells are incubated at 37° C., 5% CO2. Three or four days prior to assay, cells are seeded at a density of 0.25×10^6 cells per ml in a total volume of 40 ml in a T162 culture flask.
Before beginning the cell manipulations described below, the MSD (Meso Scale Discovery) assay plate is blocked by addition of 150 ul/well blocking buffer supplied and incubated with shaking for a minimum of one hour at room temperature. All steps of the assay must be performed quickly, with accurately timed incubation periods and observing temperature controls where indicated.
Cells seeded at 0.25×10^6/ml 3 or 4 days prior to the assay are aspirated, transferred to a 50 ml falcon tube, counted and centrifuged for eight minutes at 300 g at room temperature. Supernatant is aspirated, the cell pellet resuspended and washed once in HBSS (Hank's Balanced Salt Solution) by centrifugation for eight minutes at 300 g at room temperature. The cell pellet is resuspended in HBSS to a concentration of 4×10^6 per ml, and 100 μL of cell suspension added to each well of a flat-bottomed 96-well tissue culture plate. Assay plates are incubated for 1.5 hours at 37° C., 5% CO2 to allow background AKT phosphorylation to reduce before the compound stimulation step.
A 5 mM stock concentration of compound is prepared in 100% DMSO; from this a 1 in 125 dilution is made in HBSS giving a top compound concentration of 40 μM, 0.8% DMSO. Compound titrations are prepared in a fresh flat-bottomed, 96-well plate, by 10-fold serial dilution of 40 uM into HBSS 0.8% DMSO; pipette tips are replaced after each dilution is made. Compound concentrations at this stage are 4-times the final concentration required in the assay plate. Cells are stimulated with compound or HBSS 0.8% DMSO by direct transfer of 50 ul/well from the compound dilution plate. The assay plate containing compound-treated cells is then incubated for 30 minutes at 37° C. A standard plate layout is used for all experiments.
Compound-treated cells, in addition to positive control wells (“max MIP1α”), are stimulated with 50 μL per well of 40 ng/ml MIP1α (R&D Systems catalogue number 270-LD, lyophilized stock reconstituted to 50 μg/ml with PBS 0.1% BSA). Negative control wells (“min HBSS”), are stimulated with 50 μl/well of HBSS in the absence of MIP1α. Final compound concentrations are now diluted 4-fold giving a top concentration of 10 μM; where added, the final concentration of MIP1α is 10 ng/ml. Cells are incubated with MIP1α for 3 minutes, at 37° C., 5% CO2. After the three minute stimulation period, the assay plate is kept ice cold at all times. Assay plates are centrifuged for 2 minutes at 300 g, 4° C. and supernatant is removed by gently inverting, and then blotting the plate on tissue. Cells are then washed by gentle addition of 150 μL/well of ice cold HBSS and centrifugation at 300 g, for 5 minutes at 4° C. Supernatant is aspirated and the plate blotted as described above. The plate is placed on ice and cells are immediately treated with 35 μL per well of ice cold lysis buffer, prepared according to the kit instructions (per assay plate, to 5 ml of Tris lysis buffer add 100 μl of 50× protease inhibitor solution and 50 μl of each 100× phosphatase inhibitor solutions I and II). Plates are incubated on ice for 20 minutes before centrifugation at 841 g for 5 minutes, 4° C.
Block buffer is aspirated from the MSD plate, and the plate washed four times with 300 μl/well Tris wash buffer. 25 μL of cell lysate is then transferred from the assay plate to the washed MSD plate which is sealed and incubated at room temperature for one hour with shaking. […]

PI 3-kinase gamma, sequence (P48736 whole entry): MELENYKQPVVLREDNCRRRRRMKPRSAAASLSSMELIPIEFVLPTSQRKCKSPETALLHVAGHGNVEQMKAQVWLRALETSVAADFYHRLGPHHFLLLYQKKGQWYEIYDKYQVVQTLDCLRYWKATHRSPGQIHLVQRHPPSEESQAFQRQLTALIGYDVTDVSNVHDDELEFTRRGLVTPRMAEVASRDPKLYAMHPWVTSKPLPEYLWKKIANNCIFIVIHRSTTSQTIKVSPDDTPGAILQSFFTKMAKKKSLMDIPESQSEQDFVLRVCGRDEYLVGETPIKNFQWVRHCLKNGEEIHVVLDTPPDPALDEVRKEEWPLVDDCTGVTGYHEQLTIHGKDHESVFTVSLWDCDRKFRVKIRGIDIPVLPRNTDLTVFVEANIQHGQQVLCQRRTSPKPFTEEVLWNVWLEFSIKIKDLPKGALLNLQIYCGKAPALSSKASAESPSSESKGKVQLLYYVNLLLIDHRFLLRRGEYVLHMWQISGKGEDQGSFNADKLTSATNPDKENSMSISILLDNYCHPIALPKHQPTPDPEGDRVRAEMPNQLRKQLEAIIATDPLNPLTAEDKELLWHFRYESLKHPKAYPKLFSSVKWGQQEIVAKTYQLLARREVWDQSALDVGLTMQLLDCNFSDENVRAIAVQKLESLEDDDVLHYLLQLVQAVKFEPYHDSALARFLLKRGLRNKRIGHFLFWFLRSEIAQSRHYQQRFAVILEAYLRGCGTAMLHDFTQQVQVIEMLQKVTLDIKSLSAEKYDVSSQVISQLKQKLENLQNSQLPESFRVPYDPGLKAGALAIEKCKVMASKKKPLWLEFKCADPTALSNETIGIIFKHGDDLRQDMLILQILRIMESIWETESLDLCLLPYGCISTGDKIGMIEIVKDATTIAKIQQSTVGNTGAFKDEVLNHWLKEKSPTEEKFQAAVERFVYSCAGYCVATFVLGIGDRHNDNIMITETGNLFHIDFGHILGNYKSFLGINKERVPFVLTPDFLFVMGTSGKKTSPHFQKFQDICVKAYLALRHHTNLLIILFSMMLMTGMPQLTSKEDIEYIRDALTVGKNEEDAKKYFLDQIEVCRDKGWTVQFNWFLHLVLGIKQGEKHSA

Consider `Cc1ccc(S(=O)(=O)NCC2(C)COC2)cc1-c1cncc(-c2cn(C)nc2C)n1` [Example 4, Trans 3-[6-(1,3-Dimethyl-1H-pyrazol-4-yl)-pyrazin-2-yl]-4-methyl-N-(3-methyl-oxetan-3-ylmethyl)-benzenesulfonamide], for which the IC50 at mTOR amounted to 0.89 µM; at PI 3-kinase gamma, 0.054 µM.
With `Cc1ccc(S(=O)(=O)NCCC(C)(C)O)cc1-c1cncc(-c2cn(CCN3CCOCC3)nc2C)n1` [Example 10, N-(3-Hydroxy-3-methyl-butyl)-4-methyl-3-{6-[3-methyl-1-(2-morpholin-4-yl-ethyl)-1H-pyrazol-4-yl]-pyrazin-2-yl}-benzenesulfonamide], the values for the IC50 at mTOR and at PI 3-kinase gamma were 9.8 µM and 0.121 µM, respectively.
As for `Cc1ccc(S(=O)(=O)N[C@H]2CC[C@H](O)CC2)cc1-c1cncc(-c2cccnc2)n1` [Example 11, Trans N-(4-Hydroxy-cyclohexyl)-4-methyl-3-(6-pyridin-3-yl-pyrazin-2-yl)-benzenesulfonamide], the IC50 was 6.24 µM at mTOR and 0.213 µM at PI 3-kinase gamma.
Take `Cc1ccc(S(=O)(=O)NCCC(C)(C)O)cc1-c1cncc(-c2cn(C)nc2C)n1` [Example 3, 3-[6-(1,3-Dimethyl-1H-pyrazol-4-yl)-pyrazin-2-yl]-N-(3-hydroxy-3-methyl-butyl)-4-methyl-benzenesulfonamide]: the IC50 was 3.85 µM on mTOR and 0.08 µM on PI 3-kinase gamma.
The like results for `Cc1ncc(-c2cncc(-c3cc(S(=O)(=O)NCCCO)ccc3C)n2)s1` [Example 1, N-(3-Hydroxy-propyl)-4-methyl-3-[6-(2-methyl-thiazol-5-yl)-pyrazin-2-yl]-benzenesulfonamide] were, in that order, 5.25 µM and 0.329 µM.
Take `Cc1ccc(S(=O)(=O)NCC(C)(C)CO)cc1-c1cncc(-c2cn(C)nc2C)n1` [Example 8, 3-[6-(1,3-Dimethyl-1H-pyrazol-4-yl)-pyrazin-2-yl]-N-(3-hydroxy-2,2-dimethyl-propyl)-4-methyl-benzenesulfonamide]: the figures for the IC50 on mTOR and at PI 3-kinase gamma were 1.95 µM and 0.096 µM, respectively.
The corresponding values for `Cc1ncc(-c2cncc(-c3cc(S(=O)(=O)N[C@H]4CC[C@H](O)CC4)ccc3C)n2)s1` [Example 5, Trans N-(4-Hydroxycyclohexyl)-4-methyl-3-(6-(2-methylthiazol-5-yl)pyrazin-2-yl)benzenesulfonamide] are 4.77 µM and 0.038 µM.
Regarding `Cc1ccc(S(=O)(=O)NCC(C)(C)O)cc1-c1cncc(-c2cn(C)nc2C)n1` [Example 2, 3-[6-(1,3-Dimethyl-1H-pyrazol-4-yl)-pyrazin-2-yl]-N-(2-hydroxy-2-methyl-propyl)-4-methyl-benzenesulfonamide], the values for the IC50 at mTOR and on PI 3-kinase gamma were 1.18 µM and 0.066 µM, respectively.
For `Cc1ccc(S(=O)(=O)NCCC(C)(C)O)cc1-c1cncc(-c2cnn(CCN3CCOCC3)c2)n1` [Example 9, N-(3-Hydroxy-3-methyl-butyl)-4-methyl-3-{6-[1-(2-morpholin-4-yl-ethyl)-1H-pyrazol-4-yl]-pyrazin-2-yl}-benzenesulfonamide], the IC50 was > 9.1 µM at mTOR and 0.599 µM on PI 3-kinase gamma.
